Measured values as given in patent US10662187B2, “Bruton's tyrosine kinase inhibitors” (Zibo Biopolar Changsheng Pharmaceutical Co. Ltd., priority 2016, dated 2020).

Assays:
BTK [1] = target: T1, BTK (Homo sapiens (Human), UniProt Q06187); assay: Btk kinase assay (HTRF); format: biochemical; settings: [ATP]=80 μM, BTK=3.4 nM; read-out: BTK Inhibition
Procedure: Btk Kinase Assay and Other Kinases Assay Btk kinase activity was determined using a homogenous time resolved fluorescence (HTRF) methodology. Measurements were performed in a reaction volume of 15 μL using 384-well assay plates. Kinase enzyme, inhibitor, ATP and 1 μM peptide substrate were incubated in a reaction buffer compose of Hepes 50 mM (pH7.0), NaN3 0.02%, BSA 0.01%, Orthocanadate 0.1 mM. […] For each compound, enzyme activity as measured at various concentrations of compound, Negative control reactions were performed in the absence of inhibitor in two replicates and eight no enzyme controls were used to determine baseline fluorescence levels.
Target sequence in this assay (Q06187 whole entry, species assumed): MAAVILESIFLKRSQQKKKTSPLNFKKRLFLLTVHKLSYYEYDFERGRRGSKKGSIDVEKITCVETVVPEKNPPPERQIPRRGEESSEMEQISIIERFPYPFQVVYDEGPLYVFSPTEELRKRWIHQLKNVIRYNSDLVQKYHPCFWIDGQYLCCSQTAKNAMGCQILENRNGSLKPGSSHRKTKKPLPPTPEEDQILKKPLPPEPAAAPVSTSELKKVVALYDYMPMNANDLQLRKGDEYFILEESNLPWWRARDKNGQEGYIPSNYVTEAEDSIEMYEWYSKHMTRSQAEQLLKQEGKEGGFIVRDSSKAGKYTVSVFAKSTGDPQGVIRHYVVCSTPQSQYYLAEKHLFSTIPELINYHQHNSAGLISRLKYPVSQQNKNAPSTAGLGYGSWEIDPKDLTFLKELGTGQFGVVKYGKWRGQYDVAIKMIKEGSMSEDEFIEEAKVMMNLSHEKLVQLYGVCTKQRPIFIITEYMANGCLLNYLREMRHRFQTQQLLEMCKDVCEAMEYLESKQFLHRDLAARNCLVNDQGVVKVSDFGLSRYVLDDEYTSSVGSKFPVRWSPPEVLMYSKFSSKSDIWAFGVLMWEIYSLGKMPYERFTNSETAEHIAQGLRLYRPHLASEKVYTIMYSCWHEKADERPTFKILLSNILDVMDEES

BTK [2] = target: T1, BTK; assay: Btk occupancy in cellular assays (PCI-33380 labeling, Jeko-1 cells); format: cell-based; settings: 1.5 h pre-incubation with compound, PCI-33380 5 μM 1 h
Procedure: Btk Occupancy in Cellular Assays
For PCI-33380 labeling of human B cells, 10^6 Jeko-1 cells were pre-incubated with compound for 1.5 h before labeling. Then cells were treated with PCI-33380 at 5 μM for 1 h. Washed, lysed in Ripa buffer containing sample reducing agent, and analyzed by SDS/PAGE and fluorescent gel scanning using a Typhoon scanner 9500 (GE Healthcare) (Ex, 532 nm; Em, 555 nm). The gel was then blotted and total Btk levels detected by standard Western blot with Btk antibody (CST).
Target sequence in this assay (Q06187 whole entry): as the sequence (Q06187 whole entry, species assumed) above

SMILES | IC50 (BTK [1]) [µM] | concentration sufficient to fully occupy the active site of Btk (BTK [2]) [nM]
C=CC(=O)N1CC[C@@H](n2nc(-c3ccc(Oc4cccc(OC)c4F)cc3)c3cncc(OC)c32)C1 [Compound 79, (R)-1-(3-(3-(4-(2-fluoro-3-methoxyphenoxy)phenyl)-7-methoxy-1H-pyrazolo[4,3-c]pyridin-1-yl)pyrrolidin-1-yl)prop-2-en-1-one] | < 0.01 | 50
C=CC(=O)N1CCC[C@@H](n2nc(-c3ccc(Oc4cccc(OC)c4F)cc3)c3cncc(OCCO)c32)C1 [Compound 98, (R)-1-(3-(3-(4-(2-fluoro-3-methoxyphenoxy)phenyl)-7-(2-hydroxyethoxy) 1H-pyrazolo[4,3-c]pyridin-1-yl)piperidin-1-yl)prop-2-en-1-one] | < 0.01 | 100
C=CC(=O)N1CC[C@@H](n2nc(-c3ccc(Oc4cccc(OC)c4F)cc3)c3cncc(OCC)c32)C1 [Compound 80, (R)-1-(3-(7-cthoxy-3-(4-(2-fluoro-3-methoxyphenoxy)phenyl)-1H-pyrazolo[4,3-c]pyridin-1-yl)pyrrolidin-1-yl)prop-2-en-1-one] | < 0.01 | 50
C=CC(=O)N1CCC[C@@H](n2nc(-c3ccc(Oc4cccc(OC)c4F)cc3)c3c(C)nccc32)C1 [Compound 78, (R)-1-(3-(3-(4-(2-fluoro-3-methoxyphenoxy)phenyl)-4-methyl-1H-pyrazolo[4,3-c]pyridin-1-yl)piperidin-1-yl)prop-2-en-1-one] | < 0.01 | 50
C=CC(=O)N1CCC[C@H](n2nc(-c3ccc(Oc4cccc(Cl)c4Cl)cc3)c3cnccc32)C1 [Compound 44, (S)-1-(3-(3-(4-(2,3-dichlorophenoxy)phenyl)-1H-pyrazolo[4,3-c]pyridin-1-yl)piperidin-1-yl)prop-2-en-1-one] | < 0.01 | –
C=CC(=O)N1CCc2c(c(-c3ccc(Oc4cccc(OC)c4F)cc3)nn2[C@@H]2CCN(C(=O)C=C)C2)C1 [Compound 46, (R)-1-(3-(5-acryloyl-3-(4-(2-fluoro-3-methoxyphenoxy)phenyl)-4,5,6,7-tetrahydro-1H-pyrazolo[4,3-c]pyridin-1-yl)pyrrolidin-1-yl)prop-2-en-1-one] | > 10 | –
CC#CC(=O)N1CCC[C@@H](n2nc(-c3ccc(Oc4cccc(OC)c4F)cc3)c3cncc(OCCN(C)C)c32)C1 [Compound 94, (R)-1-(3-(7-(2-(dimethylamino)ethoxy)-3-(4-(2-fluoro-3-methoxyphenoxy)phenyl)-1H-pyrazolo[4,3-c]pyridin-1-yl)piperidin-1-yl)but-2-yn-1-one] | 0.01 to 0.1 | –
C=CC(=O)N1CCC[C@@H](n2nc(-c3ccc(Oc4cccc(OC)c4F)cc3)c3cncc(O)c32)C1 [Compound 82, (R)-1-(3-(3-(4-(2-fluoro-3-methoxyphenoxy)phenyl)-7-hydroxy-1H-pyrazolo[4,3-c]pyridin-1-yl)piperidin-1-yl)prop-2-en-1-one] | < 0.01 | –
C=CC(=O)N1CC[C@@H](n2nc(-c3ccc(Oc4cccc(OC)c4F)cc3)c3cncc(Cl)c32)C1 [Compound 27, (R)-1-(3-(7-chloro-3-(4-(2-fluoro-3-methoxyphenoxy)phenyl)-1H-pyrazolo[4,3-c]pyridin-1-yl)pyrrolidin-1-yl)prop-2-en-1-one] | 0.01 to 0.1 | –
C=CC(=O)N1CC[C@@H](n2nc(-c3ccc(Oc4cccc(OC)c4C)cc3)c3cnccc32)C1 [Compound 59, (R)-1-(3-(3-(4-(3-methoxy-2-methylphenoxy)phenyl)-1H-pyrazolo[4,3-c]pyridin-1-yl)pyrrolidin-1-yl)prop-2-en-1-one] | 0.01 to 0.1 | –
C=CC(=O)Nc1cccc(-n2nc(-c3ccc(Oc4ccccc4)cc3)c3cnccc32)c1 [Compound 22, N-(3-(3-(4-phenoxyphenyl)-1H-pyrazolo[4,3-c]pyridin-1-yl)phenyl)acrylamide] | 0.01 to 0.1 | –
C=CC(=O)N1CCC[C@@H](n2nc(-c3ccc(OCc4ccccc4F)cc3)c3cnccc32)C1 [Compound 101, (R)-1-(3-(3-(4-((2-fluorobenzyl)oxy)phenyl)-1H-pyrazolo[4,3-c]pyridin-1-yl)piperidin-1-yl)prop-2-en-1-one] | 0.01 to 0.1 | –
COc1cccc(Oc2ccc(-c3nn([C@@H]4CCCN(C(=O)C(C)O)C4)c4c(OC)cncc34)cc2)c1F (stereo partly drawn) [Compound 118, 1-((R)-3-(3-(4-(2-fluoro-3-methoxyphenoxy)phenyl)-7-methoxy-1H-pyrazolo[4,3-c]pyridin-1-yl)piperidin-1-yl)-2-hydroxypropan-1-one] | 0.01 to 0.1 | –
C=CC(=O)N1CC[C@@H](n2nc(-c3ccc(Oc4ccccc4)cc3)c3c(N)cccc32)C1 [Compound 54, (R)-1-(3-(4-amino-3-(4-phenoxyphenyl)-1H-indazol-1-yl)pyrrolidin-1-yl)prop-2-en-1-one] | 0.01 to 0.1 | –
C=CC(=O)N1CC[C@@H](n2nc(-c3ccc(Oc4cccc(F)c4C)cc3)c3cnccc32)C1 [Compound 14, (R)-1-(3-(3-(4-(3-fluoro-2-methylphenoxy)phenyl)-1H-pyrazolo[4,3-c]pyridin-1-yl)pyrrolidin-1-yl)prop-2-en-1-one] | 0.01 to 0.1 | –
C=CC(=O)N1CCC[C@H](n2nc(-c3ccc(Oc4cccc(C)c4)cc3)c3cnccc32)C1 [Compound 37, (S)-1-(3-(3-(4-(m-tolyloxy)phenyl)-1H-pyrazolo[4,3-c]pyridin-1-yl)piperidin-1-yl)prop-2-en-1-one] | 0.01 to 0.1 | –
C=CC(=O)N1CCC[C@@H](n2nc(-c3ccc(Oc4cccc(OC)c4F)cc3)c3cncc(OC4CCOC4)c32)C1 (stereo partly drawn) [Compound 99, 1-((3R)-3-(3-(4-(2-fluoro-3-methoxyphenoxy)phenyl)-7-((tctrahydrofuran-3-yl)oxy)-1H-pyrazolo[4,3-c]pyridin-1-yl)piperidin-1-yl)prop-2-en-1-one] | < 0.01 | 100
C=CC(=O)N1CC(n2nc(-c3ccc(Oc4ccccc4)cc3)c3cnccc32)C1 [Compound 52, 1-(3-(3-(4-phenoxyphenyl)-1H-pyrazolo[4,3-c]pyridin-1-yl)azetidin-1-yl)prop-2-en-1-one] | 0.01 to 0.1 | –

More lines, now with the values ahead:

IC50 (BTK [1]) [µM] | concentration sufficient to fully occupy the active site of Btk (BTK [2]) [nM] | SMILES
< 0.01 | 100 | C=CC(=O)N1CC[C@@H](n2nc(-c3ccc(Oc4cccc(OC)c4Cl)cc3)c3cncc(OC)c32)C1 [Compound 69, (R)-1-(3-(3-(4-(2-chloro-3-methoxyphenoxy)phenyl)-7-methoxy-1H-pyrazolo[4,3-c]pyridin-1-yl)pyrrolidin-1-yl)prop-2-en-1-one]
< 0.01 | 25 | C=CC(=O)N1CCC[C@@H](n2nc(-c3ccc(Oc4cccc(OC)c4F)cc3)c3cncc(OCCC)c32)C1 [Compound 77, (R)-1-(3-(3-(4-(2-fluoro-3-methoxyphenoxy)phenyl)-7-propoxy-1H-pyrazolo[4,3-c]pyridin-1-yl)piperidin-1-yl)prop-2-en-1-one]
0.01 to 0.1 | – | C=CC(=O)N1CCC[C@@H](n2nc(-c3ccc(Oc4cccc(OC(C)C)c4)cc3)c3cnccc32)C1 [Compound 23, (R)-1-(3-(3-(4-(3-isopropoxyphenoxy)phenyl)-1H-pyrazolo[4,3-c]pyridin-1-yl)piperidin-1-yl)prop-2-en-1-one]
0.01 to 0.1 | – | C=CC(=O)N1CCC[C@@H](n2nc(-c3ccc(Oc4cccc(OC)c4)cc3)c3cnccc32)C1 [Compound 65, (R)-1-(3-(3-(4-(3-methoxyphenoxy)phenyl)-1H-pyrazolo[4,3-c]pyridin-1-yl)piperidin-1-yl)prop-2-en-1-one]
0.01 to 0.1 | – | C=CC(=O)N1CC[C@@H](n2nc(-c3ccc(OCc4ccccc4F)cc3)c3cnccc32)C1 [Compound 100, (R)-1-(3-(3-(4-((2-fluorobenzyl)oxy)phenyl)-1H-pyrazolo[4,3-c]pyridin-1-yl)pyrrolidin-1-yl)prop-2-en-1-one]
< 0.01 | – | C=CC(=O)N1CCC[C@@H](n2nc(-c3ccc(Oc4ccccc4)cc3)c3cnccc32)C1 [Compound 33, (R)-1-(3-(3-(4-phenoxyphenyl)-1H-pyrazolo[4,3-c]pyridin-1-yl)piperidin-1-yl)prop-2-en-1-one]
1 to 10 | – | C=CC(=O)N1CC[C@@H](n2nc(-c3ccc(Oc4cccc(OC)c4F)cc3)c3c2CCN(C(C)=O)C3)C1 [Compound 45, (R)-1-(3-(5-acetyl-3-(4-(2-fluoro-3-methoxyphenoxy)phenyl)-4,5,6,7-tetrahydro-1H-pyrazolo[4,3-c]pyridin-1-yl)pyrrolidin-1-yl)prop-2-en-1-one]
0.01 to 0.1 | – | C=CC(=O)N1CCC[C@@H](n2nc(-c3ccc(Oc4cccc(Cl)c4)cc3)c3cnccc32)C1 [Compound 9, (R)-1-(3-(3-(4-(3-chlorophenoxy)phenyl)-1H-pyrazolo[4,3-c]pyridin-1-yl)piperidin-1-yl)prop-2-en-1-one]
0.01 to 0.1 | – | C=CC(=O)N1CC[C@@H](n2nc(-c3ccc(-c4cccc(C)c4)cc3)c3cnccc32)C1 [Compound 107, (R)-1-(3-(3-(3′-methyl-[1,1′-biphenyl]-4-yl)-1H-pyrazolo[4,3-c]pyridin-1-yl)pyrrolidin-1-yl)prop-2-en-1-one]
< 0.01 | – | COc1cccc(Oc2ccc(-c3nn(C4CCC(C(=O)O)CC4)c4c(OC)cncc34)cc2)c1F (centres unmarked) [Compound 122, 4-(3-(4-(2-fluoro-3-methoxyphenoxy)phenyl)-7-methoxy-1H-pyrazolo[4,3-c]pyridin-1-yl)cyclohexanecarboxylic acid]
